Starred links: 1 amine or outer side, 2 acyl side, 3 side chain; linkers in the order of their positions; H or OH if unused. Positions of bridges follow the written chain, without caps; N, C: chain ends. Non-standard residues stand in square brackets, D forms with d. Residues, ends and D or L forms follow the SMILES beside them. Groups on a side chain read outwards from the residue. *: point of attachment. Trp(1-Me) = Cn1cc(C[C@H](N)C(=O)O)c2ccccc21; Abu(4-yl) = O=C([C@H](CC[*:3])N[*:1])[*:2]; C18 diacid = O=C(O)CCCCCCCCCCCCCCCCC(=O)*; γGlu = O=C(O)[C@H](CCC(=O)[*:2])N[*:1]; 2Nal = N[C@@H](Cc1ccc2ccccc2c1)C(=O)O; AEEA = NCCOCCOCC(=O)O; Sar = CNCC(=O)O
These molecules were tested on classical complement pathway (assay: In vitro haemolysis assay (inhibition of classical complement pathway)). Settings: Table 3; human serum, sensitized sheep red blood cells; read-out: IC50[nM], in vitro analysis of inhibition of hemolysis.
Type: cell-based, human
How it was run: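 Serially diluted compound (9 points) was preincubated 15 min at room temperature with diluted human serum, titrated per batch to give 70-90% maximal haemolysis, in Tris/casein buffer pH 7.4 with Mg2+/Ca2+. Antibody-sensitized sheep erythrocytes were then added for 30 min at 37° C, and the reaction was stopped with EDTA. Haemolysis was read at A405, with IC50 from 4PL fit.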
CC[C@H](C)[C@@H]1NC(=O)[C@@H](NC(=O)CN(C)C(=O)[C@H](CCC(=O)O)NC(=O)CNC(C)=O)CSSC[C@@H](C(=O)N[C@H](C(=O)N[C@@H](CCC(=O)O)C(=O)N[C@@H](C)C(N)=O)[C@@H](C)O)NC(=O)[C@H](CCCNC(=N)N)NC(=O)[C@H](Cc2c[nH]cn2)NC(=O)[C@H](CCC(=O)O)NC(=O)CNC(=O)[C@H](Cc2c[nH]c3ccccc23)NC(=O)[C@H](CC(=O)O)NC(=O)[C@H](CCC(N)=O)NC(=O)[C@H](Cc2cn(C)c3ccccc23)NC1=O [Compound 88] (Ac-GE[Sar]CI[Trp(1-Me)]QDWGEHRCTEA-NH2; disulfide 4-14) gave an IC50 of less than 100 nM.
In the case of CC[C@H](C)[C@@H]1NC(=O)[C@@H](NC(=O)[C@H](Cc2ccccc2)NC(C)=O)CSSC[C@@H](C(=O)N[C@H](C(=O)NCC(=O)N[C@@H](C)C(=O)N[C@@H](CCC(=O)O)C(=O)N[C@@H](CO)C(N)=O)[C@@H](C)O)NC(=O)[C@H](CCCNC(=N)N)NC(=O)[C@H](Cc2c[nH]cn2)NC(=O)[C@H](CCC(=O)O)NC(=O)CNC(=O)[C@H](Cc2c[nH]c3ccccc23)NC(=O)[C@H](CC(=O)O)NC(=O)[C@H](CCC(N)=O)NC(=O)[C@H](Cc2ccc3ccccc3c2)NC1=O [Compound 64] (Ac-FCI[2Nal]QDWGEHRCTGAES-NH2; disulfide 2-12), the IC50 is reported as less than 100 nM.
CC[C@H](C)[C@@H]1NC(=O)[C@@H](NC(=O)[C@H](Cc2ccccc2)NC(=O)[C@H](CCC(=O)O)NC(C)=O)CSSC[C@@H](C(=O)N[C@@H](CCC(=O)O)C(=O)NCC(=O)N[C@@H](CCC(=O)O)C(=O)N[C@@H](CCCCNC(=O)CC[C@H](NC(=O)CNC(=O)CC[C@H](NC(=O)CCCCCCCCCCCCCCCCC(=O)O)C(=O)O)C(=O)O)C(N)=O)NC(=O)[C@H](CCCNC(=N)N)NC(=O)[C@H](Cc2c[nH]cn2)NC(=O)[C@H](CCC(=O)O)NC(=O)CNC(=O)[C@H](Cc2c[nH]c3ccccc23)NC(=O)[C@H](CC(=O)O)NC(=O)[C@H](CCC(N)=O)NC(=O)[C@H](Cc2cn(C)c3ccccc23)NC1=O [Compound 134] (Ac-EFCI[Trp(1-Me)]QDWGEHRCEGEK([γGlu-Gly-γGlu-C18 diacid])-NH2; disulfide 3-13) showed an IC50 of less than 100 nM.
With CC[C@H](C)[C@@H]1NC(=O)[C@@H](NC(=O)CN(C)C(=O)[C@H](CCC(=O)O)NC(=O)[C@H](CO)NC(C)=O)CSSC[C@@H](C(=O)N[C@H](C(=O)N[C@@H](CCC(=O)O)C(=O)N[C@@H](C)C(N)=O)[C@@H](C)O)NC(=O)[C@H](CCCNC(=N)N)NC(=O)[C@H](Cc2c[nH]cn2)NC(=O)[C@H](CCC(=O)O)NC(=O)CN(C)C(=O)[C@H](Cc2c[nH]c3ccccc23)NC(=O)[C@H](CCC(=O)O)NC(=O)[C@H](CCC(N)=O)NC(=O)[C@H](Cc2cn(C)c3ccccc23)NC1=O [Compound 89, Ac-SE[Sar]C(1)I[1-Me-Trp]QEW[Sar]EHRC(1)TEA-NH2] (Ac-SE[Sar]CI[Trp(1-Me)]QEW[Sar]EHRCTEA-NH2; disulfide 4-14) the IC50 was less than 100 nM.
CC[C@H](C)[C@@H]1NC(=O)[C@@H](NC(=O)[C@H](Cc2ccc(O)cc2)NC(=O)[C@H](CCC(=O)O)NC(=O)[C@H](CO)NC(C)=O)CSSC[C@@H](C(=O)N(C)CC(=O)N[C@@H](CCC(=O)O)C(=O)NCC(=O)N[C@@H](CCC(=O)O)C(=O)NCCOCCOCC(=O)NCCOCCOCC(=O)N[C@@H](CCCCNC(=O)CC[C@H](NC(=O)CNC(=O)CC[C@H](NC(=O)CCCCCCCCCCCCCCCCC(=O)O)C(=O)O)C(=O)O)C(N)=O)NC(=O)[C@H](CCCNC(=N)N)NC(=O)[C@H](Cc2c[nH]cn2)NC(=O)[C@H](CCC(=O)O)NC(=O)CNC(=O)[C@H](Cc2c[nH]c3ccccc23)NC(=O)[C@H](CC(=O)O)NC(=O)[C@H](CCC(N)=O)NC(=O)[C@H](Cc2cn(C)c3ccccc23)NC1=O [Compound 117] (Ac-SEYCI[Trp(1-Me)]QDWGEHRC[Sar]EGE[AEEA][AEEA]K([γGlu-Gly-γGlu-C18 diacid])-NH2; disulfide 4-14) was tested, and the IC50 was less than 250 nM.
In the case of CC[C@H](C)[C@@H]1NC(=O)[C@@H](NC(=O)[C@H](Cc2ccccc2)NC(=O)[C@H](C)NC(=O)[C@H](CO)NC(=O)CNC(=O)[C@H](CCC(=O)O)NC(C)=O)CSSC[C@@H](C(=O)N[C@@H](CCC(=O)O)C(=O)NCC(=O)N[C@@H](CCC(=O)O)C(N)=O)NC(=O)[C@H](CCCNC(=N)N)NC(=O)[C@H](Cc2c[nH]cn2)NC(=O)[C@H](CCC(=O)O)NC(=O)CNC(=O)[C@H](Cc2c[nH]c3ccccc23)NC(=O)[C@H](CC(=O)O)NC(=O)[C@H](CCC(N)=O)NC(=O)[C@H](Cc2cn(C)c3ccccc23)NC1=O [Compound 58] (Ac-EGSAFCI[Trp(1-Me)]QDWGEHRCEGE-NH2; disulfide 6-16), the IC50 is reported as less than 100 nM.
With CC[C@H](C)[C@@H]1NC(=O)[C@@H](NC(=O)[C@H](Cc2ccc(O)cc2)NC(=O)[C@H](CCC(=O)O)NC(=O)CNC(=O)[C@H](CO)NC(=O)[C@H](C)NC(C)=O)CSSC[C@@H](C(=O)N(C)CC(=O)N[C@@H](CCC(=O)O)C(=O)NCC(=O)N[C@@H](CCC(=O)O)C(=O)N[C@@H](CCCCNC(=O)CC[C@H](NC(=O)CNC(=O)CC[C@H](NC(=O)CCCCCCCCCCCCCCCCC(=O)O)C(=O)O)C(=O)O)C(N)=O)NC(=O)[C@H](CCCNC(=N)N)NC(=O)[C@H](Cc2c[nH]cn2)NC(=O)[C@H](CCC(=O)O)NC(=O)CNC(=O)[C@H](Cc2c[nH]c3ccccc23)NC(=O)[C@H](CC(=O)O)NC(=O)[C@H](CCC(N)=O)NC(=O)[C@H](Cc2cn(C)c3ccccc23)NC1=O [Compound 113] (Ac-ASGEYCI[Trp(1-Me)]QDWGEHRC[Sar]EGEK([γGlu-Gly-γGlu-C18 diacid])-NH2; disulfide 6-16) the IC50 was less than 500 nM.
For CC[C@H](C)[C@@H]1NC(=O)[C@@H](NC(=O)[C@H](Cc2ccccc2)NC(=O)[C@H](CCC(=O)O)NC(=O)[C@H](CO)NC(C)=O)CSCC[C@@H](C(=O)N(C)CC(=O)N[C@@H](CCC(=O)O)C(=O)NCCOCCOCC(=O)NCCOCCOCC(=O)N[C@@H](CCCCNC(=O)CC[C@H](NC(=O)CNC(=O)CC[C@H](NC(=O)CCCCCCCCCCCCCCCCC(=O)O)C(=O)O)C(=O)O)C(=O)O)NC(=O)[C@H](CCCNC(=N)N)NC(=O)[C@H](Cc2c[nH]cn2)NC(=O)[C@H](CCC(=O)O)NC(=O)CN(C)C(=O)[C@H](Cc2c[nH]c3ccccc23)NC(=O)[C@H](CC(=O)O)NC(=O)[C@H](CCC(N)=O)NC(=O)[C@H](Cc2cn(C)c3ccccc23)NC1=O [Compound 162, Ac-SEFA(1)I[1-Me-Trp]QDW[Sar]EHRhC(1)[Sar]E[Peg3][Peg3]-K([17-carboxy-heptadecanoyl][γGlu]G[γGlu])-OH] (Ac-SEFCI[Trp(1-Me)]QDW[Sar]EHR[Abu(4-yl)][Sar]E[AEEA][AEEA]K([γGlu-Gly-γGlu-C18 diacid])-OH; thioether 4-14), the IC50 was less than 100 nM.
With CC[C@H](C)[C@@H]1NC(=O)[C@@H](NC(=O)[C@H](Cc2ccccc2)NC(=O)[C@H](CCC(=O)O)NC(=O)[C@H](CO)NC(C)=O)CSCC[C@@H](C(=O)N[C@H](C(=O)N[C@@H](CCC(=O)O)C(=O)NCC(=O)N[C@@H](CCC(=O)O)C(=O)NCC(=O)NCC(=O)NCC(=O)N[C@@H](CCCCNC(=O)CC[C@H](NC(=O)CNC(=O)CC[C@H](NC(=O)CCCCCCCCCCCCCCCCC(=O)O)C(=O)O)C(=O)O)C(N)=O)[C@@H](C)O)NC(=O)[C@H](CCCNC(=N)N)NC(=O)[C@H](Cc2c[nH]cn2)NC(=O)[C@H](CCC(=O)O)NC(=O)CNC(=O)[C@H](Cc2c[nH]c3ccccc23)NC(=O)[C@H](CC(=O)O)NC(=O)[C@H](CCC(N)=O)NC(=O)[C@H](Cc2cn(C)c3ccccc23)NC1=O [Compound 157, Ac-SEFA(1)I[1-Me-Trp]QDWGEHRhC(1)TEGEGGG-K([17-carboxy-heptadecanoyl][γGlu]G[γGlu])-NH2] (Ac-SEFCI[Trp(1-Me)]QDWGEHR[Abu(4-yl)]TEGEGGGK([γGlu-Gly-γGlu-C18 diacid])-NH2; thioether 4-14) the IC50 was less than 100 nM.
CC[C@H](C)[C@@H]1NC(=O)[C@@H](NC(=O)[C@H](Cc2ccc(O)cc2)NC(=O)[C@H](C)NC(=O)[C@H](CO)NC(=O)CNC(=O)[C@H](CCC(=O)O)NC(C)=O)CSCC[C@@H](C(=O)N(C)CC(=O)N[C@@H](CCC(=O)O)C(=O)N[C@@H](CCCCN)C(=O)N[C@@H](CCC(=O)N[C@@H](CCCCNC(=O)COCCOCCNC(=O)COCCOCCNC(=O)CC[C@H](NC(=O)CCCCCCCCCCCCCCCCC(=O)O)C(=O)O)C(N)=O)C(=O)O)NC(=O)[C@H](CCCNC(=N)N)NC(=O)[C@H](Cc2c[nH]cn2)NC(=O)[C@H](CCC(=O)O)NC(=O)CNC(=O)[C@H](Cc2c[nH]c3ccccc23)NC(=O)[C@H](CC(=O)O)NC(=O)[C@H](CCC(N)=O)NC(=O)[C@H](Cc2cn(C)c3ccccc23)NC1=O [Compound 159, Ac-EGSAYA(1)I[1-Me-Trp]QDWGEHRhC(1)[Sar]EK[γGlu]-K([17-carboxy-heptadecanoyl][γGlu][Peg3][Peg3])-NH2] (Ac-EGSAYCI[Trp(1-Me)]QDWGEHR[Abu(4-yl)][Sar]EK[γGlu]K([AEEA-AEEA-γGlu-C18 diacid])-NH2; thioether 6-16) showed an IC50 of less than 100 nM.
In the case of CC[C@H](C)[C@@H]1NC(=O)[C@@H](NC(=O)[C@H](Cc2ccccc2)NC(=O)[C@H](CCC(=O)O)NC(=O)[C@H](CO)NC(C)=O)CSSC[C@@H](C(=O)N(C)CC(=O)N[C@@H](CCC(=O)O)C(=O)N[C@@H](C)C(N)=O)NC(=O)[C@H](CCCNC(=N)N)NC(=O)[C@H](Cc2c[nH]cn2)NC(=O)[C@H](CCC(=O)O)NC(=O)CNC(=O)[C@H](Cc2c[nH]c3ccccc23)NC(=O)[C@H](CCC(=O)O)NC(=O)[C@H](CCC(N)=O)NC(=O)[C@H](Cc2cn(C)c3ccccc23)NC1=O [Compound 83] (Ac-SEFCI[Trp(1-Me)]QEWGEHRC[Sar]EA-NH2; disulfide 4-14), the IC50 is reported as less than 100 nM.

Same assay, conditions: Table 5; different residues at position 3 of Ac-IC(1)XWQDWGEHRC(1)T-NH2; read-out: IC50, CP hemolysis
CC(C)C[C@H](N)C(=O)O [Leucine, reference compound] showed an IC50 of 500 nM.

Same assay, conditions: Table 5; different residues at position 3 of Ac-IC(1)[…](1)T-NH2; read-out: IC50, CP hemolysis
CCCC[C@H](N)C(=O)O [Norleucine, reference compound] was tested, and the IC50 was 480 nM.

— patent US20220306695A1, “COMPSTATIN ANALOGUES AND THEIR MEDICAL USES” (priority 2019, published 2022)
